Reference: PubChem BioAssay (NCI)
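How tested: cells in 96-well plates exposed to compound for 48 hours at five concentrations. The concentration for 50% growth inhibition is given as GI50. TGI: total growth inhibition.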

Experiments:
Test in all cases: DTP human tumour cell line panel, 48 h
[1] = system: UO-31 renal
[2] = system: MDA-MB-231 breast
[3] = system: NCI-H226 lung
[4] = system: NCI/ADR-RES ovarian
[5] = system: 786-0 renal
[6] = system: K-562 leukemia
[7] = system: HOP-92 NSCLC
[8] = system: SF-268 CNS
[9] = system: ACHN renal
[10] = system: UACC-62 melanoma

Structure (SMILES)	GI50 [1]	TGI [1]	GI50 [2]	TGI [2]	GI50 [3]	TGI [3]	GI50 [4]	TGI [4]	GI50 [5]	TGI [5]	GI50 [6]	TGI [6]	GI50 [7]	TGI [7]	GI50 [8]	TGI [8]	GI50 [9]	TGI [9]	GI50 [10]	TGI [10]
NCCCC(=O)Nc1ccncc1	> 100 µM	> 100 µM	> 100 µM	> 100 µM	> 100 µM	> 100 µM	> 100 µM	> 100 µM	> 100 µM	> 100 µM	> 100 µM	> 100 µM	> 100 µM	> 100 µM	> 100 µM	> 100 µM	> 100 µM	> 100 µM	> 100 µM	> 100 µM
CC1(C)COCN1COC1CCCCC1	–	> 100 µM	–	> 100 µM	–	> 100 µM	–	> 100 µM	–	> 100 µM	–	> 100 µM	–	> 100 µM	–	> 100 µM	–	> 100 µM	–	> 100 µM
O=C(c1cc(F)c(Cl)cc1Cl)N1N=C(c2ccccc2)CC1(O)c1ccccc1 (stereo not given)	15.7 µM	30.1 µM	15.7 µM	33.3 µM	17.3 µM	36.5 µM	19 µM	41 µM	15.8 µM	40.9 µM	12.2 µM	27.2 µM	13 µM	29.8 µM	21.9 µM	53.2 µM	23 µM	59.4 µM	11.1 µM	23.9 µM
CCOC(=O)Cc1csc(/N=C2\NC(=O)/C(=C3\C(=O)N(C)c4ccccc43)S2)n1	35.6 µM	> 100 µM	37.4 µM	> 100 µM	28.6 µM	> 100 µM	49.6 µM	> 100 µM	28 µM	72.5 µM	36 µM	> 100 µM	52.3 µM	> 100 µM	45.2 µM	> 100 µM	35.9 µM	> 100 µM	26.1 µM	83.6 µM
CC(C)(C)C(=O)Nc1ccccc1I(=O)=O	> 100 µM	> 100 µM	> 100 µM	> 100 µM	> 100 µM	> 100 µM	> 100 µM	> 100 µM	> 100 µM	> 100 µM	> 100 µM	> 100 µM	> 100 µM	> 100 µM	> 100 µM	> 100 µM	> 100 µM	> 100 µM	> 100 µM	> 100 µM
